Source: patent US20230287389A1, “A METHOD FOR GENERATING NEW MUTATION IN ORGANISM AND USE THEREOF” (Qingdao Kingagroot Chemical Compound Co., Ltd., priority 2019, published 2023)

Assays:
[1] = test system: T1 generation OsACCase2 W2038L edited seedlings; assay: Resistance test of T1 generation OsACCase2 W2038L edited seedlings to ACCase inhibitor herbicides; assay type: in vivo, Oryza sativa; conditions: for Resistance of OsACCase2 W2038L mutant strain: field concentrations
Method: After the propagation of the TO strain containing the W2038L mutation, the T1 generation mutant seedlings were tested for herbicide resistance with quizalofop-p and haloxyfop-p in field concentrations.

Arabidopsis thaliana = assay: Selection of Arabidopsis thaliana seedlings on imazapic medium; assay type: in vivo
Method: After the seeds of the T1 strain were harvested from single plant, the seeds of different strains of two vectors were selected and spread on the imazapic selection medium (MS medium+0.24 μg/mL imazapic) to perform selection, and the positive seedlings were transplanted to the soil one week later and subjected to molecular detection, in which the method was the same as step 5.

[2] = test system: T1 generation OsALS W548 site and OsSWEET14 double-site edited seedlings; assay: Resistance test of T1 generation OsALS W548L edited seedlings to ALS inhibitor herbicides; assay type: in vivo, Oryza sativa; conditions: for Resistance of OsALS W548L mutant strain: field concentrations
Method: After the propagation of TO strains in which the occurrence of OsALS W548L mutation was detected, the T1 generation mutant seedling strains were tested for herbicide resistance with pyroxsulam, imazapic, nicosulfuron and flucarbazone-Na at field concentrations.

C[C@@H](Oc1ccc(Oc2ncc(C(F)(F)F)cc2Cl)cc1)C(=O)O [Haloxyfop-p]
Resistance of W2038L edited strains QY367-7-12 and QY367-7-18 ([1]; 5 g/mu active ingredient of Haloxyfop-p): developed resistance | Resistance of OsACCase2 W2038L mutant strain [1]: significantly resistant

Cc1cnc(C2=NC(=O)C(C)(C(C)C)N2)c(C(=O)O)c1 (stereo not drawn) [imazapic]
Response of W574M edited T1 plant to imazapic treatment (Arabidopsis thaliana; Example 3): showed resistance | Growth of wild-type Col-0 on imazapic resistant medium (Arabidopsis thaliana; MS medium + 0.24 μg/mL imazapic): could not grow | Growth of positive plants of the mutant strains on imazapic resistant medium (Arabidopsis thaliana; MS medium + 0.24 μg/mL imazapic, T2): could grow normally | Resistance of W548L edited strain QY360-7-11 ([2]; 7 g/mu active ingredient of imazapic): developed resistance | Resistance of OsALS W548L mutant strain [2]: significant resistance

COc1nn(C(=O)[N-]S(=O)(=O)c2ccccc2OC(F)(F)F)c(=O)n1C.[Na+] [flucarbazone-Na]
Resistance of W548L edited strain QY360-7-9 ([2]; 2 g/mu active ingredient of flucarbazone-Na): developed resistance | Resistance of OsALS W548L mutant strain [2]: significant resistance

C[C@@H](Oc1ccc(Oc2cnc3cc(Cl)ccc3n2)cc1)C(=O)O [quizalofop-p]
Resistance of W2038L edited strains QY367-5-10 and QY367-5-21 ([1]; 5 g/mu active ingredient of quizalofop-p): developed resistance | Resistance of OsACCase2 W2038L mutant strain [1]: significantly resistant

COc1cc(OC)nc(NC(=O)NS(=O)(=O)c2ncccc2C(=O)N(C)C)n1 [nicosulfuron]
Resistance of W548L edited strain QY360-7-11 ([2]; 4 g/mu active ingredient of nicosulfuron): developed resistance | Resistance of OsALS W548L mutant strain [2]: significant resistance

COc1cc(OC)n2nc(NS(=O)(=O)c3c(C(F)(F)F)ccnc3OC)nc2n1 [pyroxsulam]
Resistance of W548L edited strains QY360-7-2 and QY360-7-11 ([2]; 2 g/mu active ingredient of pyroxsulam): developed resistance | Resistance of OsALS W548L mutant strain [2]: significant resistance
